Active and inactive are the calls of the source. No cut-off for these calls is given here.
How the values were obtained:
HT-29 [1] = assay: Cytotoxicity against human HT-29 cells after 72 hrs by sulforhodamine B assay; type: functional, cell-based
[2] = target: T1, DNA topoisomerase 1 (Homo sapiens) (UniProt P11387); assay: Inhibition of topoisomerase 1 (unknown origin) at 100 uM using supercoiled pBR322 DNA substrate by ethidium bromide staining based electrophoresis method
T1 sequence (whole entry): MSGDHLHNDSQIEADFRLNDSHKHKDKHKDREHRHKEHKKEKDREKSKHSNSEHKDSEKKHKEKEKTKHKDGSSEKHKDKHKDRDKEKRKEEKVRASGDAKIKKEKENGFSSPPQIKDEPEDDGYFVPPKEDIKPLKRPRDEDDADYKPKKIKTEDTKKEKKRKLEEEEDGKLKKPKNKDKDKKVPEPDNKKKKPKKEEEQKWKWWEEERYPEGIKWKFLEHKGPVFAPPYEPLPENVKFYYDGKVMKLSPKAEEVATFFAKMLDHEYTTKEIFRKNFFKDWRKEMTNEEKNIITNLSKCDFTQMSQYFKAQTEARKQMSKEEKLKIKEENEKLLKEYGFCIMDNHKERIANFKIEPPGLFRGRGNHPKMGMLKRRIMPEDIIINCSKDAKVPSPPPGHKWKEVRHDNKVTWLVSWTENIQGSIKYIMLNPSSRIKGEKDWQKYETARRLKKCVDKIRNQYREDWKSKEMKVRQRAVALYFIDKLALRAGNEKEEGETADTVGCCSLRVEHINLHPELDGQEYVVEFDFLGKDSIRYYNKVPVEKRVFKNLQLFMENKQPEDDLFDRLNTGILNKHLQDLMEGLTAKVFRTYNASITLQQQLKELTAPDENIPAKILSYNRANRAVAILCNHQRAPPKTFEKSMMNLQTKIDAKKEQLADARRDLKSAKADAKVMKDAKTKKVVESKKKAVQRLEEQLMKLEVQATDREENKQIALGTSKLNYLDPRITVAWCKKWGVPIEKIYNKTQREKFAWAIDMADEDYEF

[3] = target: T1, DNA topoisomerase 1 (Homo sapiens); assay: Inhibition of topoisomerase 1 (unknown origin) at 10 uM using supercoiled pBR322 DNA substrate by ethidium bromide staining based electrophoresis method
[4] = Cytotoxicity against human HCT116 cells after 72 hrs by sulforhodamine B assay; type: functional, cell-based, HCT-116
[5] = Inhibition of survivin protein expression in human HCT116 cells at 1 nM after 48 hrs by Western blot method; type: functional, cell-based; conditions: HCT-116
[6] = Inhibition of survivin protein expression in human HCT116 cells at 5 nM after 48 hrs by Western blot method; type: functional, cell-based; conditions: HCT-116
Mus musculus [7] = assay: Toxicity in human HT-29 cells xenografted mouse assessed as body weight level at 15 mg/kg, iv dosed three times per week to the end of treatment measured on day 3 (reference value: 20.7 +/- 1.2 g); type: organism-based; set-up: dose 15 mg/kg, route intravenous; conditions: in vivo
Mus musculus [8] = assay: Toxicity in human HT-29 cells xenografted mouse assessed as body weight level at 15 mg/kg, iv dosed three times per week to the end of treatment measured on day 21 (reference value: 21.2 +/- 1.6 g); type: organism-based; set-up: dose 15 mg/kg, route intravenous; conditions: in vivo
Mus musculus [9] = assay: Toxicity in human HT-29 cells xenografted mouse assessed as body weight level at 15 mg/kg, iv dosed three times per week to the end of treatment measured on day 7 (reference value: 21.7 +/- 1 g); type: organism-based; set-up: dose 15 mg/kg, route intravenous; conditions: in vivo
Mus musculus [10] = assay: Toxicity in human HT-29 cells xenografted mouse assessed as body weight level at 15 mg/kg, iv dosed three times per week to the end of treatment measured on day 14 (reference value: 22.7 +/- 1.5 g); type: organism-based; set-up: dose 15 mg/kg, route intravenous; conditions: in vivo
HT-29 [11] = assay: Antitumor activity against human HT-29 cells xenografted in mouse assessed as relative tumor increment rate at 15 mg/kg, iv dosed three times per week to the end of treatment relative to untreated control; type: functional
Mus musculus [12] = assay: Toxicity in human HT-29 cells xenografted mouse assessed as lethal toxicity at 15 mg/kg, iv dosed three times per week to the end of treatment; type: organism-based; set-up: dose 15 mg/kg, route intravenous; conditions: in vivo
Mus musculus [13] = assay: Toxicity in human HT-29 cells xenografted mouse assessed as body weight level at 15 mg/kg, iv dosed three times per week to the end of treatment measured on day 17 (reference value: 22 +/- 1.7 g); type: organism-based; set-up: dose 15 mg/kg, route intravenous; conditions: in vivo
Mus musculus [14] = assay: Toxicity in human HT-29 cells xenografted mouse assessed as body weight level at 15 mg/kg, iv dosed three times per week to the end of treatment measured on day 10 (reference value: 22.4 +/- 1.3 g); type: organism-based; set-up: dose 15 mg/kg, route intravenous; conditions: in vivo
HCT-116 = assay: Potency index, ratio of IC50 for SN38 to IC50 for compound against human HCT116 cells after 72 hrs by sulforhodamine B assay; type: functional
[15] = Stability in human plasma assessed as lactone moieties level at 1 uM incubated at 37 degC after 3 hrs by HPLC method; type: ADME, cell-free; conditions: read-out: Stability

Row | Compound | inhibition [2] | inhibition [3] | IC50 (HT-29 [1]; Homo sapiens, HT-29, 72 h) | IC50 ([4]; Homo sapiens, HCT-116, 72 h) | other results
1 | CC[C@]1(O)c2cc3n(c(=O)c2COC(=O)[C@H]1OC)Cc1cc2cc(O)ccc2nc1-3 | Active | Active | 26.7 nM | 4.46 nM | –
2 | CC[C@]1(O)c2cc3n(c(=O)c2COC(=O)[C@H]1OC(C)=O)Cc1c-3nc2ccccc2c1-c1cn(C)cn1 | Active | Active | 9.11 nM | 1.47 nM | –
3 | CC[C@]1(O)c2cc3n(c(=O)c2COC(=O)[C@H]1OC)Cc1c-3nc2cc3c(cc2c1-c1ccncc1)OCO3 [listing 1 of 2 here] | Active | – | – | – | inhibition [5]: Active; inhibition [6]: Active
4 | CC[C@]1(O)c2cc3n(c(=O)c2COC(=O)[C@H]1OC)Cc1c-3nc2ccccc2c1-c1ccncc1 | Active | Active | 7.18 nM | 2.12 nM | –
5 | CC[C@]1(O)c2cc3n(c(=O)c2COC(=O)[C@H]1OC)Cc1cc2cc4c(cc2nc1-3)OCO4 | Active | Active | 0.3 nM | 0.2 nM | inhibition [5]: Active; inhibition [6]: Active
6 | CC[C@]1(O)c2cc3n(c(=O)c2COC(=O)[C@H]1OC(C)=O)Cc1c-3nc2ccccc2c1-c1ccncc1 | inactive | – | 11.4 nM | 2.95 nM | –
7 | CC[C@]1(O)c2cc3n(c(=O)c2COC(=O)[C@H]1OC)Cc1c-3nc2ccc(OC)cc2c1-c1ccncc1 | Active | Active | 6.76 nM | 3.33 nM | –
8 | CCc1c2c(nc3ccc(OC(=O)N4CCC(N5CCCCC5)CC4)cc13)-c1cc3c(c(=O)n1C2)COC(=O)[C@]3(O)CC [IRINOTECAN] | – | – | – | – | Activity (Mus musculus [7]): 19.9 g; Activity (Mus musculus [8]): 21.3 g; Activity (Mus musculus [9]): 20.8 g; Activity (Mus musculus [10]): 22.4 g; T/C (HT-29 [11]): 42.22%; Activity (Mus musculus [12]): Non-toxic; Activity (Mus musculus [13]): 22.3 g; Activity (Mus musculus [14]): 21.6 g
9 | CC[C@]1(O)c2cc3n(c(=O)c2COC(=O)[C@H]1OC)Cc1c-3nc2ccccc2c1-c1cn(C)cn1 | Active | Active | 4.11 nM | 1.26 nM | –
10 | CC[C@]1(O)c2cc3n(c(=O)c2COC(=O)[C@H]1OC)Cc1c-3nc2cc3c(cc2c1-c1ccncc1)OCO3 [listing 2 of 2 here] | – | – | – | – | IC50 (HT-29 [1]; ht-29): 1.27 nM; Ratio IC50 (HCT-116): 20; IC50 ([4]; hct-116): 0.215 nM
11 | CCc1c2c(nc3ccc(O)cc13)-c1cc3c(c(=O)n1C2)COC(=O)[C@]3(O)CC [7-ETHYL-10-HYDROXYCAMPTOTHECIN] | – | – | 18.5 nM | 4.28 nM | remaining at 3 h, 1 µM [15]: 20%
12 | CC[C@]1(O)c2cc3n(c(=O)c2COC(=O)[C@H]1OC)Cc1cc2ccccc2nc1-3 | Active | Active | 4.79 nM | 1.72 nM | –

More lines, main results first:

Row | inhibition [2] | inhibition [3] | Compound | IC50 (HT-29 [1]; Homo sapiens, HT-29, 72 h) | IC50 ([4]; Homo sapiens, HCT-116, 72 h) | other results
13 | Active | Active | CC[C@]1(O)c2cc3n(c(=O)c2COC(=O)[C@H]1OC)Cc1c-3nc2ccccc2c1C1CCN(C)CC1 | 17.2 nM | 3.23 nM | –
14 | Active | Active | CC[C@]1(O)c2cc3n(c(=O)c2COC(=O)[C@H]1OC)Cc1c-3nc2ccc(OC)cc2c1C1CCN(C)CC1 | 27.1 nM | 8.23 nM | –
15 | Active | Active | CC[C@]1(O)c2cc3n(c(=O)c2COC(=O)[C@H]1OC(C)=O)Cc1c-3nc2ccc(OC)cc2c1-c1ccncc1 | 31 nM | 7.99 nM | –
16 | Active | Active | CC[C@]1(O)c2cc3n(c(=O)c2COC(=O)[C@H]1OC(C)=O)Cc1c-3nc2ccccc2c1C1CCN(C)CC1 | 63.8 nM | 9.74 nM | –
17 | Active | Active | CC[C@]1(O)c2cc3n(c(=O)c2COC(=O)[C@H]1OC(C)=O)Cc1c-3nc2ccc(OC)cc2c1C1CCN(C)CC1 | 54.7 nM | 13.2 nM | –
